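Dose response: 5 concentrations. Exposure: 48 h. Format: 96-well plates. Endpoint: linear interpolation; highest concentration if not reached. TGI denotes the concentration required for complete inhibition of growth.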
How the values were obtained:
Assay in all cases: NCI-60 cell line screen, 48 h
LOX IMVI melanoma = system: LOX IMVI melanoma
EKVX NSCLC = system: EKVX NSCLC
MALME-3M melanoma = system: MALME-3M melanoma
HT29 colon = system: HT29 colon
KM20L2 colon = system: KM20L2 colon
DMS 114 small cell lung = system: DMS 114 small cell lung
M19-MEL melanoma = system: M19-MEL melanoma
UO-31 renal = system: UO-31 renal
LXFL 529 NSCLC = system: LXFL 529 NSCLC
SK-MEL-5 melanoma = system: SK-MEL-5 melanoma
RXF-631 renal = system: RXF-631 renal
UACC-257 melanoma = system: UACC-257 melanoma
RXF 393 renal = system: RXF 393 renal
COLO 205 colon = system: COLO 205 colon
IGROV1 ovarian = system: IGROV1 ovarian
NCI-H23 lung = system: NCI-H23 lung
HOP-18 NSCLC = system: HOP-18 NSCLC
HOP-92 NSCLC = system: HOP-92 NSCLC
XF 498 CNS = system: XF 498 CNS
SR leukemia = system: SR leukemia
MOLT-4 leukemia = system: MOLT-4 leukemia
SN12C renal = system: SN12C renal
DMS 273 small cell lung = system: DMS 273 small cell lung
OVCAR-8 ovarian = system: OVCAR-8 ovarian
NCI-H522 lung = system: NCI-H522 lung
HCT-116 colon = system: HCT-116 colon
OVCAR-3 ovarian = system: OVCAR-3 ovarian
SK-MEL-28 melanoma = system: SK-MEL-28 melanoma
786-0 renal = system: 786-0 renal
SF-295 CNS = system: SF-295 CNS
SF-268 CNS = system: SF-268 CNS
A498 renal = system: A498 renal
TK-10 renal = system: TK-10 renal
UACC-62 melanoma = system: UACC-62 melanoma
HOP-62 NSCLC = system: HOP-62 NSCLC
NCI-H226 lung = system: NCI-H226 lung
KM12 colon = system: KM12 colon
K-562 leukemia = system: K-562 leukemia
SF-539 CNS = system: SF-539 CNS
ACHN renal = system: ACHN renal
SK-OV-3 ovarian = system: SK-OV-3 ovarian
SNB-78 CNS = system: SNB-78 CNS
SW-620 colon = system: SW-620 colon
SK-MEL-2 melanoma = system: SK-MEL-2 melanoma
DLD-1 colon = system: DLD-1 colon
M14 melanoma = system: M14 melanoma
A549 NSCLC = system: A549 NSCLC
RPMI-8226 leukemia = system: RPMI-8226 leukemia
SNB-75 CNS = system: SNB-75 CNS
HCC-2998 colon = system: HCC-2998 colon
U251 CNS = system: U251 CNS
NCI-H460 lung = system: NCI-H460 lung
CCRF-CEM leukemia = system: CCRF-CEM leukemia
OVCAR-5 ovarian = system: OVCAR-5 ovarian
CAKI-1 renal = system: CAKI-1 renal
OVCAR-4 ovarian = system: OVCAR-4 ovarian
SNB-19 CNS = system: SNB-19 CNS
HCT-15 colon = system: HCT-15 colon
HL-60(TB) leukemia = system: HL-60(TB) leukemia

Measured: TGI

C=C(C)[C@H]1CC[C@@]2(C)C(C1)[C@H](C)CC[C@@H]2O (stereo partly specified)
not listed: HL-60(TB) leukemia
> 100 µM: all other assays above

C[C@@H]1C[C@H]2[C@@H]3CCC4=CC(=O)C=C[C@]4(C)[C@@]3(F)[C@@H](O)C[C@]2(C)[C@@]1(O)C(=O)CO
not listed: RXF-631 renal | RXF 393 renal | HOP-18 NSCLC | XF 498 CNS | DMS 273 small cell lung | SF-295 CNS | SF-268 CNS | A498 renal | SF-539 CNS | SNB-78 CNS | RPMI-8226 leukemia | SNB-75 CNS | HCC-2998 colon | U251 CNS | NCI-H460 lung | SNB-19 CNS
> 100 µM: all other assays above

— PubChem BioAssay (NCI)
